8 molecules from patent US12479827B2, “Heteroaromatic carboxamide derivatives as plasma kallikrein inhibitors” (Boehringer Ingelheim International GmbH, priority 2020, dated 2025) can be followed below.

Holding throughout (assay type): biochemical
In test [1] the target is T1, human TK1 (Homo sapiens, UniProt P06870).
T1 construct: purchased R&D Systems
In words: Inhibition of TK1 (Ki). Conditions: activated human TK1, substrate H-Pro-Phe-Arg-AMC, 24° C. Here is the method: The ability of compounds of formula (I) to inhibit plasma kallikrein (PKK), Factor XIIa (FXIIa), Factor XIa (FXIa), Factor Xa (FXa), Factor IIa (alpha-thrombin; FIIa), plasmin, trypsin, tissue kallikrein 1 (TK1), Factor VIIa (FVIIa), or FVIIa complexed with Tissue Factor, phospholipids and CaCl2 (FVIIa/TF/PL/CaCl2) is determined using the following biochemical assays in assay buffer (100 mM Tris, 150 mM NaCL, adjusted to a pH of 7.8 with HCl, and containing 0.1% (w/v) BSA and 0.05% (v/v) Tween20) in the presence of 1% (v/v) DMSO:
Prior to the assay, human TK1 (R&D Systems) is activated by incubation with human trypsin (Calbiochem) in a 1:10,000 ratio for 15 min at 37° C. For assaying TK1 inhibitory activity, activated TK1 (31.25 nM or 1 U/mL) is incubated at 24° C. with 0.1 mM fluorogenic substrate H-Pro-Phe-Arg-AMC (11295 from Bachem) and various concentrations of the test compound in assay buffer. Measurements are performed in a kinetic interval every 2nd minute for 16 min using a Spectramax M5 (Molecular Devices) with the following settings of the wavelength excitation of 350 nm and wavelength emission of 450 nm.
The pIC50 values are then fitted using a four-parametric fitting procedure using GraphPad Prism (version 6; GraphPad Software, Inc.). Respective Ki values are obtained by correction of the IC50 values for the respective KM value of the used substrate (see Table A for the obtained KM values of the used substrates) using the following formula:
[formula] Where the IC50 is in molar and the KM value in mM.

Test [2] has as its target T2, PKK in kaolin activated human platelet poor plasma (Homo sapiens, UniProt P03952).
T2 construct: Platelet poor plasma (PPP) obtained from human wholeblood; from tissue
Briefly: Inhibition of PKK in kaolin activated human PPP.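 Also: readout is the rate of fluorogenic substrate cleavage in rfu per min.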 To be noted: 25-750 μg/mL kaolin, global fit, text b200 calls the values IC90. Here is the method: Platelet poor plasma (PPP) obtained from human wholeblood, anticoagulated with Na-Citrate, is incubated with various concentrations of the test compound together with either 25, 75, 250, or 750 μg/mL kaolin in assay buffer for 20 min at 37° C. such that for each kaolin dose used a concentration response is obtained for the test compound.

Test [3] has as its target T3, Human PKK (Homo sapiens, UniProt P03952).
T3 construct: purchased Enzyme Research Laboratories
Briefly: Inhibition of PKK using an endpoint assay (human PKK). Conditions: fluorogenic substrate H-Pro-Phe-Arg-AMC, 1 h room temperature, method names human or rat PKK, table does not say which. The method in brief: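 Human PKK inhibition measured in 100 mM Tris, 150 mM NaCl, pH 7.8, 0.1% BSA, 0.05% Tween20, 1% DMSO. Endpoint format: reaction stopped with PPACK II at 1 μM final, fluorescence read at 355 nm excitation/460 nm emission.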

SMILES strings stand for the structures.

One may read the Ki as a measure of affinity in units of concentration, obtained from inhibition or displacement. As a reminder, the IC50 is the midpoint of a concentration-inhibition curve.

T3 sequence (P03952 20-390 limits assumed): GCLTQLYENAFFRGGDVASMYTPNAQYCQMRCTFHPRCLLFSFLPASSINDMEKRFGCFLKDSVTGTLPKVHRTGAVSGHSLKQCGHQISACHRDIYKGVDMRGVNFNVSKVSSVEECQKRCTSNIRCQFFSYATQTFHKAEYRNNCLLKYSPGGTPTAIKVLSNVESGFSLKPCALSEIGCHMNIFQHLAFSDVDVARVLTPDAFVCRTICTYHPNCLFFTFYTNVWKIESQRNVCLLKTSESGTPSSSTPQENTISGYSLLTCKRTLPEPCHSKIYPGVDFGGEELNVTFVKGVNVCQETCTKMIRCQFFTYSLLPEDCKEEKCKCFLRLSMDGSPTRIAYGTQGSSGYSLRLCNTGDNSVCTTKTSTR
T3 sequence (P03952 391-638 limits assumed): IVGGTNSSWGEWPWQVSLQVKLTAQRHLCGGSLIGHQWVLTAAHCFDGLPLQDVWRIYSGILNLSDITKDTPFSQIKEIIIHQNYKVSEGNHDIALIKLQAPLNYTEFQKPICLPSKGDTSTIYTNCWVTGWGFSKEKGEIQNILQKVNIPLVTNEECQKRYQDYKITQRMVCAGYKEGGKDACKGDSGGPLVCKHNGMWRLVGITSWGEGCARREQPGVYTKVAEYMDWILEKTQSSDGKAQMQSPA
T2 sequence (P03952 391-638 limits assumed): as above
T2 sequence (P03952 20-390 limits assumed): as the sequence (P03952 20-390 limits assumed) above
T1 sequence (P06870 25-262): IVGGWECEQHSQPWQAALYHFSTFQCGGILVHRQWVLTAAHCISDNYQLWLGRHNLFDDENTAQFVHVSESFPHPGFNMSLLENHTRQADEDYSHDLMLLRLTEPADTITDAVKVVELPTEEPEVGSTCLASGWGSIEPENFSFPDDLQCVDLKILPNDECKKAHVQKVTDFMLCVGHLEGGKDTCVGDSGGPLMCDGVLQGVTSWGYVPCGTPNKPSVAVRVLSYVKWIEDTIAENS

The molecule `Cc1nc(N2CC3C(C2)C3(F)F)ccc1Cn1cc(C(=O)N[C@@H]2CCc3c2ncn3C)c(CO)n1` (stereo partly drawn) [Example 107, 1-[(6-{6,6-Difluoro-3-azabicyclo[3.1.0]hexan-3-yl}-2-methylpyridin-3-yl)methyl]-3-(hydroxymethyl)-N-[(4R)-1-methyl-1H,4H,5H,6H-cyclopenta[d]imidazol-4-yl]-1H-pyrazole-4-carboxamide] gave a Ki in test [1] above 10000 nM. Moreover, the concentration for half-maximal inhibition (IC50) in test [2] was 324 nM; in test [3] it was 1 nM.
The molecule `Cn1cnc2c1CC[C@H]2NC(=O)c1cn(Cc2ccc(N3CC4CC4C3)nc2F)cn1` (stereo partly drawn) [Example 108, 1-[(6-{3-Azabicyclo[3.1.0]hexan-3-yl}-2-fluoropyridin-3-yl)methyl]-N-[(4R)-1-methyl-1H,4H,5H,6H-cyclopenta[d]imidazol-4-yl]-1H-imidazole-4-carboxamide] returned a Ki in test [1] above 10000 nM. Also, the values for the 50% inhibitory concentration (IC50) in test [2] and in test [3] were 465 nM and 1.7 nM, respectively.
In the case of `CCCc1nc(N2CC3CC3C2)ccc1Cn1cnc(C(=O)N[C@@H]2CCc3c2ncn3C)c1` (stereo partly drawn) [Example 110, 1-[(6-{3-Azabicyclo[3.1.0]hexan-3-yl}-2-propylpyridin-3-yl)methyl]-N-[(4R)-1-methyl-1H,4H,5H,6H-cyclopenta[d]imidazol-4-yl]-1H-imidazole-4-carboxamide], the Ki in test [1] was above 10000 nM. In addition, the IC50 in test [2] came out at 784 nM; in test [3], 0.9 nM.
In test [1], `Cn1cnc2c1CC[C@H]2NC(=O)c1cnn(Cc2cnc(N3CC4CC4C3)c(C#N)c2)c1` (stereo partly drawn) [Example 114, 1-[(6-{3-Azabicyclo[3.1.0]hexan-3-yl}-5-cyanopyridin-3-yl)methyl]-N-[(4R)-1-methyl-1H,4H,5H,6H-cyclopenta[d]imidazol-4-yl]-1H-pyrazole-4-carboxamide] returned an inhibition constant Ki above 10000 nM. In addition, the results for the IC50 in test [2] and in test [3] were 14700 nM and 1.8 nM, respectively.
`Cn1cnc2c1CC[C@H]2NC(=O)c1cnn(Cc2cnc(N3CC4CC4C3)cc2C(F)(F)F)c1` (stereo partly drawn) [Example 115, 1-[(6-{3-Azabicyclo[3.1.0]hexan-3-yl}-4-(trifluoromethyl)pyridin-3-yl)methyl]-N-[(4R)-1-methyl-1H,4H,5H,6H-cyclopenta[d]imidazol-4-yl]-1H-pyrazole-4-carboxamide] displayed a Ki in test [1] above 10000 nM. Besides, the values for the IC50 in test [2] and in test [3] were 2660 nM and 4.1 nM, respectively.
Molecule `Cc1c(Cn2cc(C(=O)N[C@@H]3CCc4c3ncn4C)cn2)cnc(N2CC3CC3C2)c1C#N` (stereo partly drawn) [Example 116, 1-[(6-{3-Azabicyclo[3.1.0]hexan-3-yl}-5-cyano-4-methylpyridin-3-yl)methyl]-N-[(4R)-1-methyl-1H,4H,5H,6H-cyclopenta[d]imidazol-4-yl]-1H-pyrazole-4-carboxamide] showed a Ki in test [1] of 871 nM. Also, the IC50 in test [2] was 278 nM; in test [3] it was 0.4 nM.
For `Cn1cnc2c1CC[C@H]2NC(=O)c1cnn(Cc2ccc(N3CC4CC4C3)nc2C2CC2)c1` (stereo partly drawn) [Example 117, 1-[(6-{3-Azabicyclo[3.1.0]hexan-3-yl}-2-cyclopropylpyridin-3-yl)methyl]-N-[(4R)-1-methyl-1H,4H,5H,6H-cyclopenta[d]imidazol-4-yl]-1H-pyrazole-4-carboxamide], in that order: above 10000 nM, 1540 nM and 2.2 nM.
In test [1], `Cc1c(Cn2cnc(C(=O)N[C@@H]3CCc4c3ncn4C)c2)cnc(N2CC3CC3C2)c1C#N` (stereo partly drawn) [Example 118, 1-[(6-{3-Azabicyclo[3.1.0]hexan-3-yl}-5-cyano-4-methylpyridin-3-yl)methyl]-N-[(4R)-1-methyl-1H,4H,5H,6H-cyclopenta[d]imidazol-4-yl]-1H-imidazole-4-carboxamide] yielded a Ki above 10000 nM. The IC50 in test [2] is 157 nM; in test [3], 0.3 nM.
